Measured values reported in patent US20250243238A1, “TETRAZINE AMINO ACIDS AND METHODS FOR THEIR PRODUCTION AND USE” (Oregon State University, priority 2024, published 2025).

Legend:
[1] = test system: Pyl-tRNA/RS pairs (Tet4 E1 and D4 synthetases); assay: Tet4 ncAA incorporation into GFP150-TAG in HEK293T cells, suppression efficiency by flow cytometry; type: cell-based, Methanosarcina barkeri; conditions: flow cytometry
Method: (§1) To access newly developed Tet4.0 derivatives into mammalian cells, an optimized eukaryotic expression system was used and their stability and reaction efficiency were validated inside living cells. The permissibility of Tet-v4.0 derivatives into eukaryotic protein was tested with an evolved synthetase Tet-v4.0 E1 and D4 co-transfected with the reporter plasmid pAcBac1-sfGFP-TAG150 into the HEK293T cells and supplemented with 100 μM each of five different Tet-v4.0 (Ph, 3-Me-Ph, 3-F-Ph, 4-F-Ph, and Pyr) derivatives side-by-side.
(§2) The compatibility of the Tet4 system with mammalian cells was explored. Specifically, the ability of Tet4 to be incorporated into proteins expressed in HEK293T cells, an immortalized human embryonic kidney cell line, was explored. […] Genes for Tet4 E1 and D4 synthetases were cloned with a terminal nuclear export sequence into the eukaryotic expression Pyl-tRNA/RS vector pAcBac1. Pyl-tRNA/RS pairs were then co-transfected with pAcBac1-GFP150-TAG into HEK293T cells and incubated either in the absence of ncAA, or with various concentrations of Tet4 ncAAs, and suppression efficiencies were assessed using flow cytometry. Tet4-Ph and Tet4-Pyr were incorporated into GFP about 50% as well as the Tet-v3.0 system, Tet3-Bu. As with Tet4 incorporation into E. coli expressed proteins, the highest suppression efficiencies in HEK293T cells were obtained with Mb-PylRS synthetase E1 and Tet4-Ph ncAA. Selective incorporation and reactivity of GFP150-Tet4 proteins were verified in whole-cell HEK293T lysates using sTCO-PEG5k-induced SDS-PAGE mobility shifts, and in purified proteins by mass spectrometry.
(§3) Transfection of HEK293T cells and imaging method. HEK293T cells were plated in a 24-well plate at the density of 40% confluency. Cells were transfected the next day using jetPRIME reagent according to the manufacturer's protocol. Briefly, 67 ng of pAcBac1-NES-D4-RS or pAcBac1-NES-E1-RS and 555 ng of pAcBac1-GFP-150TAG plasmid DNA were diluted with 50 μL of jetPRIME buffer. […] GFP expression was verified by fluorescence microscopy on EVOS FL imaging system.

[2] = test system: Mb-PylRS/tRNACUA pairs D4 and E1; assay: Efficiency, fidelity and permissivity of evolved synthetases: GFP150-TAG expression in E. coli with Tet ncAA; type: cell-based, Methanosarcina barkeri; conditions: synthetases D4 and E1
Method: (§4) To incorporate Tet ncAAs in the protein, a GCE machinery was developed to encode Tet ncAAs into the protein in response to TAG codon suppression with evolving orthogonal aaRS/tRNAcuA pair. The permissibility of developed synthetases for structurally parallel Tet ncAA derivatives was evaluated in 25 mL scale in presence and absence of 0.5 mM Tet ncAA.
(§5) Efficiency and fidelity of selected synthetases. The efficiency and fidelity of the selected synthetases were measured by expressing GFP150 in 50 mL AIM with and without 0.5 mM Tet4-Ph. DH10b cells containing the selected pBK-RSs and the pALS-GFP150TAG plasmids, were used to inoculate 5 mL of NIM containing kanamycin (50 μg/mL) and tetracycline (25 μg/mL). Cells were grown for 16 hours at 37° C. shaking at 250 rpm. The saturated NIM cultures (500 μL) were used to inoculate in 50 mL AIM containing kanamycin (50 μg/mL) and tetracycline (25 μg/mL) and measured fluorescence using a Turner Biosystems Picofluor fluorimeter diluting 100 μL cell culture in 1.9 mL water. Two synthetases D4 and E1 for Tet4-Ph were identified to have good efficiency and fidelity. The selected two synthetases are differ at two mutation sites C313A/G and W382I/V respectively.
(§6) Permissivity screen for Tet4-Pyr with selected synthetases. To assess if the top four selected RSs for Tet4-Ph could incorporate Tet4-Pyr, expressions of GFP150TAG with Tet4-Pyr were evaluated. Using the above efficiency and fidelity method, 5 mL AIM separate cultures were inoculated with cells containing the pBK-RSs/pALS-GFP150. Tet4-Pyr (0.5 mM) was added to cultures from a 50 mM DMF ncAA stock solution. Cultures were grown for 30-36 hours at 37° C. and 250 rpm. Fluorescence of the culture was measured by diluting 100 μL cell culture in 1.9 mL water.
(§7) Expression and purification of GFP150-TAG-Tet4. […] Protein concentration was determined by measuring absorbance at 280 nm. Protein purity was assessed using SDS-PAGE.

[3] = Stability and reactivity of incorporated Tet ncAA inside protein on storage in PBS; type: physicochemical
Method: The stability and reaction efficiency of incorporated Tet ncAAs in proteins was investigated. […] The SDS-PAGE gel mobility shift assay and mass spectrometry analysis of the incorporated Tet-v2.0, Tet-v3.0 and Tet-v4.0 derivatives confirmed their stability and reactivity with sTCO.
Mobility shift assay. Labeling efficiency and purity of Tet-containing proteins have been verified by reacting with 10 eqv. sTCO-PEG5k under PBS (pH 7.1) for 10 minutes at room temperature and examined the mobility shift of the reacted proteins in SDS-PAGE gel. The mobility shift assay helps to provide an insight into the reaction efficiency of Tet-containing proteins and also quantifies the amount of reactive Tet ncAA present in protein and measures if there is any misincorporation or Tet-degradation by showing unreactive protein.
In addition, to assess their stability and reactivity more rigorously, GFP-Tet-v4.0 (Ph, 3-Me-Ph, 3-F-Ph and Pyr) were incubated at 4° C. and room temperature (RT) under 50 mM PBS (pH 7.1) with 100 mM imidazole and studied their reaction efficiency for another 8 days.
Mass spectrometry. The site-specific labelling reaction between Tet ncAA and sTCO is quantitative inside protein was confirmed by ESI-Q-TOF mass spectrometry. […] No other peak has been detected for sTCO exposed samples which verified that the GFP-Tet reacts with sTCO quantitatively without involving side reactions.

[4] = biological target: T1, Pyl-tRNA/RS pairs (Tet4 E1 and D4 synthetases) (Methanosarcina barkeri, UniProt Q6WRH6, C313A/N311S/V366H/W382I); assay: Tet4 ncAA incorporation into GFP150-TAG in HEK293T cells, suppression efficiency by flow cytometry; type: cell-based; conditions: 100 μM ncAA, synthetase D4
T1 construct: D4-Py1RS (Protein); expressed in transfected cells; host or cells: HEK293T
Method: as §1, §2, §3

[5] = biological target: T2, Mb-PylRS/tRNACUA pairs D4 and E1 (Methanosarcina barkeri, UniProt Q6WRH6, C313A/N311S/V366H/W382I); assay: Efficiency, fidelity and permissivity of evolved synthetases: GFP150-TAG expression in E. coli with Tet ncAA; type: cell-based; conditions: synthetase D4 only
T2 construct: D4-Py1RS (Protein); expressed in transfected cells; host or cells: E. coli DH10b carrying pBK-RS and pALS-GFP150TAG
Method: as §4, §5, §6, §7

T2 sequence (Q6WRH6 whole entry N311S/C313A/V366H/W382I): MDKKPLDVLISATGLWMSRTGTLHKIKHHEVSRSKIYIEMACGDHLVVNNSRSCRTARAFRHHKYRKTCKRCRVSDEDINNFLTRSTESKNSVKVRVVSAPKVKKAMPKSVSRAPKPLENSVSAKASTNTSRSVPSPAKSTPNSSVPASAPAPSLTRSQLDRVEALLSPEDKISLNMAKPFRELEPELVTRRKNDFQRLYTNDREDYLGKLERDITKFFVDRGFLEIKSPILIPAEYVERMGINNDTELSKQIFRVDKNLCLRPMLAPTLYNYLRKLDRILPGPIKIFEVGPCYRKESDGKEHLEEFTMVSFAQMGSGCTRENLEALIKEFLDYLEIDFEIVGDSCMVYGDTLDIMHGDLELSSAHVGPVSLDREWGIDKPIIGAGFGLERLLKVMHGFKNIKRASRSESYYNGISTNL
T1 sequence (Q6WRH6 whole entry N311S/C313A/V366H/W382I): as above

Compound	incorporation into GFP relative to the Tet-v3.0 system, Tet3-Bu [1]	yield of GFP150-TAG expressed with the ncAA [2] [mg/L]	stability inside protein ([3]; PBS pH 7.1, both 4° C. and RT, after 8 days)	incorporation into GFP-TAG150 [4]	yield of GFP150-TAG expressed with the ncAA [5]	yield of GFP150-TAG expressed with the ncAA ([5]; listed as Tet-v4.0Pyr) [mg/L]	stability and reactivity inside protein ([3]; GFP-Tet protein, PBS pH 7.1, room temperature)
N[C@@H](Cc1nnc(-c2ccccc2)nn1)C(=O)O [Tet4-Ph, (S)-2-amino-3-(6-phenyl-1,2,4,5-tetrazin-3-yl)propanoic acid]	about 50%	55 to 60	highly stable	–	–	–	–
N[C@@H](Cc1nnc(-c2ccccn2)nn1)C(=O)O [Tet4-Pyr, (S)-2-amino-3-(6-(pyridin-2-yl)-1,2,4,5-tetrazin-3-yl)propanoic acid]	about 50%	–	–	relatively high yield	about 40 mg/L	35 to 40	degraded with time
